Tests used:
[1] = target: T. maritima RNase P; parameters: method as in PMID 30997498; conditions: cited from earlier work
[2] = test system: T. maritima RNase P; assay: T. maritima RNase P inhibition (literature); assay type: biochemical; conditions: own PRORP IC50 against the cited T. maritima IC50 of 12.8 μM (ref 28)
[3] = target: T1, PRORP1 C222A/C353A (Arabidopsis thaliana, UniProt Q66GI4, C222A/C353A); assay: Time-dependent inactivation by juglone, PRORP1 C222A/C353A; assay type: biochemical, A. thaliana
T1 construct: made in house
T1 sequence (Q66GI4 77-572 C222A/C353A): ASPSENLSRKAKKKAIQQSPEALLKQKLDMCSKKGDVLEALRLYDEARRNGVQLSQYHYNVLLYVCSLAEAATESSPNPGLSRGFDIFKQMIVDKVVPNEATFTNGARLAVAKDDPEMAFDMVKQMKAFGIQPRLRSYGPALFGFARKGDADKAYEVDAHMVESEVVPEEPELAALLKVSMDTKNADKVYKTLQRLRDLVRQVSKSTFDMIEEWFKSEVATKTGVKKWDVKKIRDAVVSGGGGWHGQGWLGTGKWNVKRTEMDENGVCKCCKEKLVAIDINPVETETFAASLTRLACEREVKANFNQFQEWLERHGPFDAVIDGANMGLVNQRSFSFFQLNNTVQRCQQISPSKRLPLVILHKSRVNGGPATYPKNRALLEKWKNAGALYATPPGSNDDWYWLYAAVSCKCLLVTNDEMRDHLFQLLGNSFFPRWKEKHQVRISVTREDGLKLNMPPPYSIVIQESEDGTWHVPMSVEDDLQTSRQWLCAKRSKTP
Description: (§1) Given the multiple sites of cysteine modification, we wanted to identify the one(s) that potentially play a significant role in PRORP1 inactivation. Therefore, several cysteine-to-alanine point mutants were expressed, purified, and subjected to inhibition studies. We tested both single-site (C353A and C373A) and double-site (C353A/C373A and C222A/C353A) mutations. […] The value of kinact,app for each PRORP1 at varied concentrations of juglone was determined by fitting a single exponential equation (Equation 5) to the data (Fig. 10A). Unexpectedly, the values of kinact/KI (reflecting the inhibition of E + I to form EI∗) increased for a number of the PRORP1 variants: wildtype (0.001 ± 0.00004 μM^-1 min^-1), C353A (0.005 ± 0.002 μM^−1 min^−1), C373A (0.002 ± 0.0004 μM^-1 min^−1), C222A/C353A (0.003 ± 0.0001 μM^−1 min^−1), and C353A/C373A (0.0008 ± 0.0002 μM^-1 min^−1). These modest increases could be due to a decrease in the KI value or an increase in the value of kinact. […] Although, we cannot discount the possibility, however unlikely, that juglone may employ a mode of inhibition beyond cysteine residue modification that our crystal structures fail to capture.
(§2) Figure 10 Effects of PRORP1 cysteine mutations on juglone inactivation. […]
(§3) For the analysis of juglone, PRORP1 activity was measured with varying preincubation time and juglone concentration. […]

[4] = target: T2, PRORP1 C353A/C373A (Arabidopsis thaliana, UniProt Q66GI4, C353A/C373A); assay: Time-dependent inactivation by juglone, PRORP1 C353A/C373A; assay type: biochemical, A. thaliana
T2 construct: made in house
T2 sequence (Q66GI4 77-572 C353A/C373A): as the sequence (Q66GI4 77-572 C222A/C353A) above, with A146C, C297A counted along it
Description: as §1, §2, §3

O=C1C=CC(=O)c2c(O)cccc21 [juglone, 5-hydroxy-1,4-naphthalenedione]
IC50 [1]: 12.8 µM
times more potent against PRORP than T. maritima RNase P [2]: about 10 times
kinact/KI [3]: 50 M⁻¹ s⁻¹
inhibition at time 0 ([3]; double-cysteine mutation (C222A/C353A)): not observed
kinact/KI [4]: 13.3 M⁻¹ s⁻¹
inhibition at time 0 ([4]; double-cysteine mutation (C353A/C373A)): not observed

Source: PMC9731865, “Gambogic acid and juglone inhibit RNase P through distinct mechanisms” (The Journal of Biological Chemistry, 2022)
